8 compounds from the Kinase Knowledgebase extract (Sharma et al. 2016) can be followed below.

Each structure is given as a SMILES string. Where only a bound is given, the exact number is not on record here.

In one assay the target is PIK3CG (human) (UniProt P48736). Put plainly: Assessment of PIK3CG Kinase Activity.
Another assay addresses PIK3CD (Human) (UniProt O00329). As to the kind of experiment: Assessment of PIK3CD Kinase Activity.
The next assay deals with PIK3CA (human) (UniProt P42336). Put plainly: Assessment of PIK3CA Kinase Activity.
The target of the next assay is PIK3CB (Human) (UniProt P42338). As to the kind of experiment: Assessment of PIK3CB Kinase Activity.
Chain of PIK3CB (Human) (P42338 whole entry, looked up): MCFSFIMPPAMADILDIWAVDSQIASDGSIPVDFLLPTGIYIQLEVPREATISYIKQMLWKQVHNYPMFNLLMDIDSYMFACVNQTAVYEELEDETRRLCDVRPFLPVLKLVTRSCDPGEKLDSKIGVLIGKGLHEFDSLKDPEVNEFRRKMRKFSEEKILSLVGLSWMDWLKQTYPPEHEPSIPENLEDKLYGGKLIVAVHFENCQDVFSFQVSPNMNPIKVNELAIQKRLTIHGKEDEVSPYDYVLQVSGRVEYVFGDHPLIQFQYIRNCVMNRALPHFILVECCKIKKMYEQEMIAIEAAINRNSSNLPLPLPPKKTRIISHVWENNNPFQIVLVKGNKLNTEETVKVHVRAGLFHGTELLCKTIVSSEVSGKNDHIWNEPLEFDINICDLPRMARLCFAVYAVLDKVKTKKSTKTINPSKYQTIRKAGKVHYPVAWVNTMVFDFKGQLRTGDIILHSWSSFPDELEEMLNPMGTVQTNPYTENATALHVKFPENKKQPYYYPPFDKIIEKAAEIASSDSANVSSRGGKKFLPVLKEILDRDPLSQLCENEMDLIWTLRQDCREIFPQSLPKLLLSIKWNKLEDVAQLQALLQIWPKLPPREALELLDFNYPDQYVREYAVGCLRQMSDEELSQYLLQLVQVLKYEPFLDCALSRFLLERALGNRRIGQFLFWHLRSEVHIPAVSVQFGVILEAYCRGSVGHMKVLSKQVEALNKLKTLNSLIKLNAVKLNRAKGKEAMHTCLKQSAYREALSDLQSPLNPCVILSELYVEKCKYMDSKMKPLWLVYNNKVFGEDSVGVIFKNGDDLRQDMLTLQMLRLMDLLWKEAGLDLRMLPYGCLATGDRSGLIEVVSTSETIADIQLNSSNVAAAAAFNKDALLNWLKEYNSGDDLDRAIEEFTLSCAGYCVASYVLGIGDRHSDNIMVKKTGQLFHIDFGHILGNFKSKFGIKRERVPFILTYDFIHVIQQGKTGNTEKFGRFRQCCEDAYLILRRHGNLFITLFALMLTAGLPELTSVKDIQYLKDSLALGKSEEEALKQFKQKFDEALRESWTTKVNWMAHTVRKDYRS

Chain of PIK3CA (human) (P42336 whole entry, looked up): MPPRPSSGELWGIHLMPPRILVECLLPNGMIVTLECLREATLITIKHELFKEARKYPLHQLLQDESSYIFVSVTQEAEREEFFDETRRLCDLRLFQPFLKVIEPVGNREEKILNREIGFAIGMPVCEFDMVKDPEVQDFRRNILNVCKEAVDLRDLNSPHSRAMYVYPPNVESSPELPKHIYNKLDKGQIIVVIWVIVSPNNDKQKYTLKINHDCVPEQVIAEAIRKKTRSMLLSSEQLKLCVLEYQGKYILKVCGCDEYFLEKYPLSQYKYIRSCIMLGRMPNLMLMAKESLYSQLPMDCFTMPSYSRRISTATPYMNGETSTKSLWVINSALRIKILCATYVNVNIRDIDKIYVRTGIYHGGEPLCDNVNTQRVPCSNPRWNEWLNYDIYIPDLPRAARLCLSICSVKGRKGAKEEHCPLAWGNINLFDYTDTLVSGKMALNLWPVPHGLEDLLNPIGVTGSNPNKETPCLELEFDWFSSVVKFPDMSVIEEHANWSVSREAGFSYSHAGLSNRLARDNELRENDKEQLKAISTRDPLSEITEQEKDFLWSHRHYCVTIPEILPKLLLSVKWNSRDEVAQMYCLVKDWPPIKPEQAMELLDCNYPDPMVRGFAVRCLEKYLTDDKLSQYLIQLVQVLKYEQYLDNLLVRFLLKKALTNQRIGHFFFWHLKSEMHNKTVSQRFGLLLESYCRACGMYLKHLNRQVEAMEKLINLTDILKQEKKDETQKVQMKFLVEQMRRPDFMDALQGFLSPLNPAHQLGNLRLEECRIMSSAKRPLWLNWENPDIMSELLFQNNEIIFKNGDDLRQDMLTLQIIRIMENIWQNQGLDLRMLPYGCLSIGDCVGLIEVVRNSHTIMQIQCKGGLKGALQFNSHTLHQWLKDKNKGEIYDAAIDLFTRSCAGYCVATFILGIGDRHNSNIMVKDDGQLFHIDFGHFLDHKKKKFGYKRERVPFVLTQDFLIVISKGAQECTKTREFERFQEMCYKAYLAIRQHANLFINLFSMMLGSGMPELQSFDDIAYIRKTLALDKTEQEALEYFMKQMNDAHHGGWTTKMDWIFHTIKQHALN
Chain of PIK3CD (Human) (O00329 whole entry, looked up): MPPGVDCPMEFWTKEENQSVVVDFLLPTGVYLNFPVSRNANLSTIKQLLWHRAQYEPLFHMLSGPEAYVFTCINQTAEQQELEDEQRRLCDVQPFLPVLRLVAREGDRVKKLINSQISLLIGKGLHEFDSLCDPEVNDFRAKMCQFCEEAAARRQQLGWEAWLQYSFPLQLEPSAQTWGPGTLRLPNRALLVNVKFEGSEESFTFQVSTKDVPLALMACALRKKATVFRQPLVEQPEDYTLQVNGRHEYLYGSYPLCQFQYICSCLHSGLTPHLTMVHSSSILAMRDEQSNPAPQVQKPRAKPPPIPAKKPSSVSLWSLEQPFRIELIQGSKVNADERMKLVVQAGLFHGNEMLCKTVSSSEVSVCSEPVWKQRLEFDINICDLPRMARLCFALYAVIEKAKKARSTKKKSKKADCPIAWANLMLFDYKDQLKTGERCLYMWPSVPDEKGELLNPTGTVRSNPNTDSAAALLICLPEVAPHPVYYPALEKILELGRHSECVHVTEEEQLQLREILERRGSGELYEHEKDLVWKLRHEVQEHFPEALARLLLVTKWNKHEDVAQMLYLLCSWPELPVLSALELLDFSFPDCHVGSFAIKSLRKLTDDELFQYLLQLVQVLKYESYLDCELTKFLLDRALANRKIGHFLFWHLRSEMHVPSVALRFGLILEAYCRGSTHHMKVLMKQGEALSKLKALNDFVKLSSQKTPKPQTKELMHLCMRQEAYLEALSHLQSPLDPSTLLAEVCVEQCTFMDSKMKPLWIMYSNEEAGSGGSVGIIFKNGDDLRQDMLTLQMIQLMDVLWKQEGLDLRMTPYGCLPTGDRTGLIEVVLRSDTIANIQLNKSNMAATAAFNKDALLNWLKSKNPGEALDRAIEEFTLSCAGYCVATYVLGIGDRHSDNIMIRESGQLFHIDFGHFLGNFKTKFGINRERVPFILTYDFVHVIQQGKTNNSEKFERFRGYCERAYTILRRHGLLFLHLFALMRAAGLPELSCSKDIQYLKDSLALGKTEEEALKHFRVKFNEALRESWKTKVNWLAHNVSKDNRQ
Chain of PIK3CG (human) (P48736 whole entry, looked up): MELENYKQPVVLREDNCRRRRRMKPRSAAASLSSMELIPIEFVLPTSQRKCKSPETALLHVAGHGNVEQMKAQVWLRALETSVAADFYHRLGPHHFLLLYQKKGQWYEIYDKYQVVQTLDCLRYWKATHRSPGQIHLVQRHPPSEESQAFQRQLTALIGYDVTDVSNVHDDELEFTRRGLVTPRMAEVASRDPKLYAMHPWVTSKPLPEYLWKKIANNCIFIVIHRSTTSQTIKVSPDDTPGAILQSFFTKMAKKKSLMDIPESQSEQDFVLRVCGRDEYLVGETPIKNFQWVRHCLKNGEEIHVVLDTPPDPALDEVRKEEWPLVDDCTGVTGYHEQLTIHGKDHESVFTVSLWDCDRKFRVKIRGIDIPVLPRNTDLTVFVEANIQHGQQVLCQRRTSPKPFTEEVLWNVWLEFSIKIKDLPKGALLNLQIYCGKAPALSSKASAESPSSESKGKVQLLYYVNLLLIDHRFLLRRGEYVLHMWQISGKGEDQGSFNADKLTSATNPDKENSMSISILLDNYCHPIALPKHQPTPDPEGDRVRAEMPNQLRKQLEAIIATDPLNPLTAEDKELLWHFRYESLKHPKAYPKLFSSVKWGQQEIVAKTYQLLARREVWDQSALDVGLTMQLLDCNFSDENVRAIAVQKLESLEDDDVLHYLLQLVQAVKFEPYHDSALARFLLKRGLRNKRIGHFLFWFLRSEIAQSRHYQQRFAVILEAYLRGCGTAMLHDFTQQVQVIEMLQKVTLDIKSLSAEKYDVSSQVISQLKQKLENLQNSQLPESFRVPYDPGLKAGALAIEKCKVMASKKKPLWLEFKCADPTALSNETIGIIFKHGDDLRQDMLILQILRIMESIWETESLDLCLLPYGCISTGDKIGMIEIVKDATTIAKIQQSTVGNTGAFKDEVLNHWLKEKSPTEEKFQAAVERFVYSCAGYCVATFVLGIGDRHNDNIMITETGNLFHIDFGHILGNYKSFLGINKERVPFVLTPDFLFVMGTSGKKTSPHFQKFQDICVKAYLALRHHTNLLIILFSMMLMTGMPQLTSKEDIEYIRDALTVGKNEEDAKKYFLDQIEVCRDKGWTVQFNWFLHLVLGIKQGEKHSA

As a reminder, the IC50 is the concentration that gives 50% inhibition. Low values mean greater potency in that assay, high ones weaker potency in that assay. For `CNc1ccc(-c2nc(N3CCOCC3)c3sc(CN(C)c4ncc(C(=O)NO)cn4)cc3n2)cn1`, the IC50 is 100 to 1000 nM against PIK3CG (human), under 100 nM against PIK3CD (Human), under 100 nM against PIK3CA (human) and 100 to 1000 nM against PIK3CB (Human).

On to `CN(Cc1cc2nc(-c3cccc(S(N)(=O)=O)c3)nc(N3CCOCC3)c2s1)c1ncc(C(=O)NO)cn1`, for which, on PIK3CA (human), the IC50 lay within 100 to 1000 nM.

The compound `Nc1ncc(-c2nc(N3CCOCC3)c3sc(NCCCC(=O)NO)cc3n2)cn1` returned a concentration for half-maximal inhibition (IC50) against PIK3CA (human) of under 100 nM.

On PIK3CA (human), `CC(=NO)c1cccc(-c2nc(N3CCOCC3)c3sc(CN(C)c4ncc(C(=O)NO)cn4)cc3n2)c1` returned a half-inhibitory concentration (IC50) of 100 to 1000 nM.

`CN(C)c1ccc(-c2nc(N3CCOCC3)c3sc(CN(C)c4ncc(C(=O)NO)cn4)cc3n2)cc1` returned a 50% inhibitory concentration (IC50) against PIK3CA (human) of over 10000 nM.

On PIK3CA (human), `C[C@H](O)c1cccc(-c2nc(N3CCOCC3)c3sc(CN(C)c4ncc(C(=O)NO)cn4)cc3n2)c1` displayed an IC50 of 100 to 1000 nM.

At PIK3CA (human), `CCCc1nc2cc(C=CC(=O)NO)ccc2n1CCN(C)Cc1cc2nc(-c3ccc(NC)nc3)nc(N3CCOCC3)c2s1` gave an IC50 of 100 to 1000 nM.

The compound `CN(Cc1cc2nc(-c3cccc(S(=O)(=O)CCO)c3)nc(N3CCOCC3)c2s1)c1ncc(C(=O)NO)cn1` had an IC50 on PIK3CA (human) of over 10000 nM.
